{
  "source": "patent US7723393B2",
  "about": "“Cycloalkylidene compounds as selective estrogen receptor modulators” (GlaxoSmithKline LLC, priority 2005, dated 2010)",
  "data": [
    {"units": {"melting point": "°C"}, "values": [
      {"smiles": "CC1(C)CC(=C(c2ccc(F)cc2)c2ccc(OCC#N)cc2)CC(C)(C)C1", "note": "[Example 7, ({4-[(4-Fluorophenyl)(3,3,5,5-tetramethylcyclohexylidene)methyl]phenyl}oxy)acetonitrile]", "melting point": "100 to 101"},
      {"smiles": "CC1(C)CC(=C(c2ccccc2)c2ccc(OCCOCCO)cc2)CC(C)(C)C1", "note": "[Example 4, 2-{[2-({4-[Phenyl(3,3,5,5-tetramethylcyclohexylidene)methyl]phenyl}oxy)ethyl]oxy}ethanol]", "melting point": "116 to 117"},
      {"smiles": "CC1(C)CC(=C(c2ccccc2)c2ccc(OCCO)cc2)CC(C)(C)C1", "note": "[Example 3, 2-({4-[Phenyl(3,3,5,5-tetramethylcyclohexylidene)methyl]phenyl}oxy)ethanol]", "melting point": "131 to 132"}
    ]}
  ]
}
